Source: patent US20080015236A1, “METHOD FOR PROMOTING MYOCARDIAL REGENERATION AND USES THEREOF” (priority 2006, published 2008)
Entries after “also recorded” stand apart in the source; their conditions may differ.

Tested on: region of myocardium that includes a myocardial infarction
Assay: Occlusion of the left anterior descending artery (myocardial infarction) in rats, daily intraperitoneal GM284, survival and histological analysis
Assay type: in vivo, Sprague Dawley rats
Excerpt: The left anterior descending artery (“LAD”) of 36 male adult Sprague Dawley rats weighing between 250 and 270 grams was occluded by placement of a ligature around the LAD and pulling it taught. The ligature was left in place to create a chronic ischemic area (myocardial infarction) distal to the occlusion. Following the closure of the chest and evacuation of the extra-pulmonary air to reverse the surgery-induced pneumothorax, the rats were returned to their cages for recovery, where they had ad libitum access to water and food for the duration of the experiment. Immediately following surgery the rats received the analgesic Buprenex at a dose of 1.5 mg/kg subcutaneously every 12 hours for the first 72 hours, and then on an as-needed basis.
The GM284 was dissolved to a final concentration of 5 mg/kg in phosphate buffered saline (“PBS”); 10 μM stock solution of GM284 in dimethyl sulfoxide (“DMSO”) was diluted in PBS. The vehicle was 250 μl of DMSO into 10 ml PBS.
Postsurgically, the rats were randomly assigned into six (6) experimental groups (A through F) with 6 animals in each group (n=36). “Vehicle” groups A, C and E received daily intraperitoneal injections of vehicle; and, “treatment” groups B, D, and F were treated with intraperitoneal injections of GM284.
Animals in treatment groups B, D, and F received daily intraperitoneal injections of GM284 at 5 mg/kg; and, animals in vehicle groups A, C and E received daily intraperitoneal injections of only the vehicle in which the GM284 was dissolved.
Animals in vehicle group A and treatment group B were treated for 2 weeks after LAD ligation and sacrificed.
Animals in vehicle group C and treatment group D were treated for 2 weeks following LAD ligation. Thereafter, the vehicle or GM284 injections were withdrawn and the animals were allowed to survive for an additional 2 weeks prior to sacrifice.
Animals in vehicle group E treatment group F were treated daily for 30 days following LAD ligation and then sacrificed.
Prior to sacrifice, the animals were anesthetized the hearts were harvested and processed for histological analysis by submersion-fixing in 4% paraformaldehyde at 4° C. overnight, followed by dehydration and embedding in paraffin. Eight-micra tissue sections were cut through the infarcted area and stained with H&E and trichrome. The histological sections were viewed by light microscopy, by a reviewer blind to the treatment groups, and evaluated for: • 1) the size of the infarct; • 2) the presence of viable cardiac myocytes; and, • 3) the extent of collateral vascularity.

[1] = two weeks after LAD occlusion, daily GM284 5 mg/kg i.p., versus vehicle, FIG. 2b

**Q.** What does the source list for CCC(C)(C)C(=O)C(=O)N1CCC[C@H]1c1nnc([C@@H]2CCCN2C(=O)C(=O)C(C)(C)CC)o1 [GM284]?
**A.** scarring / fibrosis (trichrome stain) (four weeks after LAD occlusion, daily treatment (group F), vehicle: extensive area of infarction, FIG. 3a): virtually no scarring; also recorded: minimal fibrosis; cardiac histology (H&E stain) (four weeks after LAD occlusion, daily treatment (group F), vehicle: extensive fibrosis, FIG. 3c): normal cardiac histology; histological appearance of the cardiac tissue after withdrawal of treatment (treated two weeks, survived additional two weeks without treatment (group D), compared with animals analyzed at cessation of treatment): did not significantly alter the histological appearance; survival over the length of the study (treatment groups B, D, F, 5 mg/kg daily intraperitoneal after LAD ligation, vehicle group mortality 25%): 100%; intramural vascularity (histology) [1]: increase in the intramural vascularity; viable myocardial cells (histology) [1]: increase in viable myocardial cells; extent of collateral vascularity (histology) (two weeks after LAD occlusion, daily GM284 5 mg/kg i.p., rare in vehicle treated tissue, FIG. 2b): numerous collateral vessels
